Where a SMILES comes first, the peptide text is derived from it. [ ]: non-standard residue; d: D form. The star is where a group is joined. dPhe(4-NHCONH2) = NC(=O)Nc1ccc(C[C@@H](N)C(=O)O)cc1; Dihydroorotyl(S) = O=C1C[C@@H](C(=O)*)NC(=O)N1; dPhe(4-Cl) = N[C@H](Cc1ccc(Cl)cc1)C(=O)O; Phe(4-NH2) = Nc1ccc(C[C@H](N)C(=O)O)cc1; d2Nal = N[C@H](Cc1ccc2ccccc2c1)C(=O)O; Lys(iPr) = CC(C)NCCCC[C@H](N)C(=O)O; d3Pal = N[C@H](Cc1cccnc1)C(=O)O
System: CD46 expression
Assay: CD46 expression by RNA-sequencing in unpaired pre-treatment and post-treatment tumor biopsies
Type: in vivo, human
Conditions: for CD46 expression Post: post-treatment biopsies
[1] = Non-Small Cell Lung Cancer, Post minus Pre, unpaired biopsies, log2-transformed counts
[2] = Non-Small Cell Lung Cancer, post- vs pre-treatment unpaired biopsies
[3] = Non-Small Cell Lung Cancer, unpaired, RNA-seq log2-transformed normalized counts
[4] = Breast Cancer, Post minus Pre, unpaired biopsies, log2-transformed counts
[5] = Breast Cancer, post- vs pre-treatment unpaired biopsies
[6] = Breast Cancer, unpaired, RNA-seq log2-transformed normalized counts

CCN1CCN(Cc2ccc(Nc3ncc(F)c(-c4cc(F)c5nc(C)n(C(C)C)c5c4)n3)nc2)CC1 [abemaciclib]
CD46 expression diff (Breast Cancer, post minus pre, unpaired biopsies): −0.15 | CD46 expression Percentage change (Breast Cancer, post vs pre, unpaired biopsies): −2.4% | CD46 expression Post (Breast Cancer, log2-transformed RNA-seq counts): 6.33

CN(C)C/C=C/C(=O)Nc1cc2c(Nc3ccc(F)c(Cl)c3)ncnc2cc1O[C@H]1CCOC1 [afatinib]
CD46 expression diff [1]: 0.11 | CD46 expression Percentage change [2]: 1.7% | CD46 expression Post [3]: 6.43

CCc1cc2c(cc1N1CCC(N3CCOCC3)CC1)C(C)(C)c1[nH]c3cc(C#N)ccc3c1C2=O [alectinib]
CD46 expression diff [1]: −0.03 | CD46 expression Percentage change [2]: −0.5% | CD46 expression Post [3]: 6.18

CNC(=O)c1ccc(N2C(=S)N(c3cnc(C#N)c(C(F)(F)F)c3)C(=O)C23CCC3)cc1F [apalutamide]
CD46 expression diff (Prostate Cancer, Post minus Pre, unpaired biopsies, log2-transformed counts): −0.03 | CD46 expression Percentage change (Prostate Cancer, post- vs pre-treatment unpaired biopsies): −0.5% | CD46 expression Post (Prostate Cancer, unpaired, RNA-seq log2-transformed normalized counts): 6.14

CNC(=O)c1ccccc1Sc1ccc2c(/C=C/c3ccccn3)n[nH]c2c1 [axitinib]
CD46 expression diff (Clear Cell Renal Cell Carcinoma, post minus pre, unpaired biopsies): −0.29 | CD46 expression Percentage change (Clear Cell Renal Cell Carcinoma, post vs pre, unpaired biopsies): −5.1% | CD46 expression Post (Clear Cell Renal Cell Carcinoma, log2-transformed RNA-seq counts): 5.43

COc1cc2nccc(Oc3ccc(NC(=O)C4(C(=O)Nc5ccc(F)cc5)CC4)cc3)c2cc1OC [cabozantinib]
CD46 expression diff (Clear Cell Renal Cell Carcinoma, Post minus Pre, unpaired biopsies, log2-transformed counts): −0.12 | CD46 expression Percentage change (Clear Cell Renal Cell Carcinoma, post- vs pre-treatment unpaired biopsies): −2.1% | CD46 expression Post (Clear Cell Renal Cell Carcinoma, unpaired, RNA-seq log2-transformed normalized counts): 5.44

C[C@@H](Oc1cc(-c2cnn(C3CCNCC3)c2)cnc1N)c1c(Cl)ccc(F)c1Cl [crizotinib]
CD46 expression diff [1]: 0.16 | CD46 expression Percentage change [2]: 2.7%

CC(C)(C)c1nc(-c2cccc(NS(=O)(=O)c3c(F)cccc3F)c2F)c(-c2ccnc(N)n2)s1 [dabrafenib]
CD46 expression diff (Melanoma, Post minus Pre, unpaired biopsies, log2-transformed counts): 0.11 | CD46 expression Percentage change (Melanoma, post- vs pre-treatment unpaired biopsies): 2.0% | CD46 expression Post (Melanoma, unpaired, RNA-seq log2-transformed normalized counts): 5.42

CC(=O)N[C@H](Cc1ccc2ccccc2c1)C(=O)N[C@H](Cc1ccc(Cl)cc1)C(=O)N[C@H](Cc1cccnc1)C(=O)N[C@@H](CO)C(=O)N[C@@H](Cc1ccc(NC(=O)[C@@H]2CC(=O)NC(=O)N2)cc1)C(=O)N[C@H](Cc1ccc(NC(N)=O)cc1)C(=O)N[C@@H](CC(C)C)C(=O)N[C@@H](CCCCNC(C)C)C(=O)N1CCC[C@H]1C(=O)N[C@H](C)C(N)=O [degarelix] (Ac-[d2Nal][dPhe(4-Cl)][d3Pal]S[Phe(4-NH2)](Dihydroorotyl(S))[dPhe(4-NHCONH2)]L[Lys(iPr)]P[dA]-NH2)
CD46 expression diff (Prostate Cancer, post minus pre, unpaired biopsies): −0.29 | CD46 expression Percentage change (Prostate Cancer, post vs pre, unpaired biopsies): −4.6% | CD46 expression Post (Prostate Cancer, log2-transformed RNA-seq counts): 5.94 | CD46 expression Pre (Prostate Cancer, pre-treatment biopsies, log2-transformed RNA-seq counts): 6.23

C#Cc1cccc(Nc2ncnc3cc(OCCOC)c(OCCOC)cc23)c1 [erlotinib]
CD46 expression diff [1]: −0.04 | CD46 expression Percentage change [2]: −0.6% | CD46 expression Post [3]: 6.23

COc1cc([C@@H]2c3cc4c(cc3[C@@H](O[C@@H]3O[C@@H]5CO[C@@H](C)O[C@H]5[C@H](O)[C@H]3O)[C@H]3COC(=O)[C@H]23)OCO4)cc(OC)c1O [etoposide]
CD46 expression diff (Endocrine Tumor, Post minus Pre, unpaired biopsies, log2-transformed counts): 0.11 | CD46 expression Percentage change (Endocrine Tumor, post- vs pre-treatment unpaired biopsies): 2.0% | CD46 expression Post (Endocrine Tumor, unpaired, RNA-seq log2-transformed normalized counts): 5.79 | CD46 expression diff [1]: 0.10 | CD46 expression Percentage change [2]: 1.7% | CD46 expression Post [3]: 5.98 | CD46 expression diff (Sarcoma, Post minus Pre, unpaired biopsies, log2-transformed counts): 0.30 | CD46 expression Percentage change (Sarcoma, post- vs pre-treatment unpaired biopsies): 6.2% | CD46 expression Post (Sarcoma, unpaired, RNA-seq log2-transformed normalized counts): 5.13

CO[C@H]1C[C@@H]2CC[C@@H](C)[C@@](O)(O2)C(=O)C(=O)N2CCCC[C@H]2C(=O)O[C@H]([C@H](C)C[C@@H]2CC[C@@H](OCCO)[C@H](OC)C2)CC(=O)[C@H](C)/C=C(\C)[C@@H](O)[C@@H](OC)C(=O)[C@H](C)C[C@H](C)/C=C/C=C/C=C/1C [everolimus]
CD46 expression diff [4]: 0.09 | CD46 expression Percentage change [5]: 1.4% | CD46 expression Post [6]: 6.46

CC(C)C[C@H](NC(=O)[C@@H](COC(C)(C)C)NC(=O)[C@H](Cc1ccc(O)cc1)NC(=O)[C@H](CO)NC(=O)[C@H](Cc1c[nH]c2ccccc12)NC(=O)[C@H](Cc1cnc[nH]1)NC(=O)[C@@H]1CCC(=O)N1)C(=O)N[C@@H](CCCNC(=N)N)C(=O)N1CCC[C@H]1C(=O)NNC(N)=O [goserelin]
CD46 expression diff [4]: 0.00 | CD46 expression Percentage change [5]: −0.1% | CD46 expression Post [6]: 6.38

— patent US20240058464A1 (Fortis Therapeutics, Inc., priority 2021, published 2024)
